Source: patent US8153165B2, “Preparation and use for reducing the damaging effect of ammonia on organisms living in water” (Tetra GmbH, priority 2006, dated 2012)

Experiments:
[1] = system: types of fish common in aquariums (acute toxicity of ammonia); test: Behavior of aquarium fish in water with 1000 μmol/l of total ammonia, with and without preparation; assay type: in vivo; conditions: for reduction of the acute toxicity of ammonia in water animals, in particular ornamental fish: in vivo
Excerpt: In aquariums holding 50 liters, the aquarium water was set to the following values:
Metered addition of a NH4Cl solution set to pH 8.2 predetermined a total ammonia concentration of 1000 μmol/l.
The aquariums were stocked with types of fish common in aquariums: • Xiphosphorus maculatus • Brachydanio rerio • Paracheirodon innesi • Rasbora heteromorpha • Colisa lalia • Papiliochromis ramirezi • Melanochromis splendida • Megalamphodus sweglesi • Corydoras spec
Only about 30% of the test fish behaved normal. […] The behavioral pattern observed persisted over 48-72 h, i.e. 2-3 days.
In the following tables, the average values of the behavior of all types of fish are represented averaged depending on the time and dose of glyoxal.2NaHSO3: (Comparison: control with 1000 μmol/l of total ammonia without treatment)

[2] = Chemical changes in the keeping water (pH, carbonate hardness); assay type: physicochemical
Excerpt: The positive effect may originate from the preparation itself, wherein, for example glyoxal.2NaHSO3 acts as a protecting agent in the gill area. The second possibility is an indirect effect by influencing the water chemistry, which again results in a shift of the NH3/NH4^+ equilibrium. Glyoxal-2NaHSO3 causes two different chemical changes in the keeping water:
1. pH reduction by up to 0.5 units, which persists considerably longer than with state of the art preparations and products, for example a reduction by 0.3 pH units up to 72 hours following the dose.
2. […] This surprising chemical behavior, too, is not found with state of the art products or preparations.

[3] = Stability of liquid product formulations; assay type: physicochemical; conditions: extended pH range between pH 3 and 9
[4] = system: fish and other water organisms; test: Compatibility of the adduct alone; assay type: in vivo
Description: The adduct alone is very well compatible for fish and other water organisms up to high concentrations of 140 mg/l.

[5] = NH3 concentration ranges common in keeping water; cited from earlier work

O=S(=O)([O-])C(O)CCCC(O)S(=O)(=O)[O-].[Na+].[Na+] (centres unmarked) [NaHSO3 bisadduct of glutardialdehyde]
reduction of the acute toxicity of ammonia in water animals, in particular ornamental fish [1]: especially effective

O=S(=O)([O-])C(O)C(O)S(=O)(=O)[O-].[Na+].[Na+] (centres unmarked) [glyoxal•2NaHSO3, NaHSO3 bisadduct of glyoxal]
time after which the carbonate hardness reduction sets in [2]: about 24 hours
time the carbonate hardness reduction lasts [2]: up to 72 hours
Reduction of the carbonate hardness ([2]; keeping water): 0.5-0.60 dH
pH reduction in the keeping water ([2]; maximum): up to 0.5 units
pH reduction in the keeping water ([2]; up to 72 hours following the dose): 0.3 pH units
stability of the liquid product formulations [3]: good stability
behavior of the test fish following addition of the preparation ([1]; 1000 μmol/l of total ammonia, only about 30% normal without preparation): the majority of the test fish behaved normal and showed no signs of damage by ammonia
Normal behavior show % of the test fish ([1]; Table A, 35 mg/l single dose, 0 hrs (before dose), 1000 μmol/l total ammonia): 89%
Normal behavior show % of the test fish ([1]; Table A, 35 mg/l single dose, 2 hrs): 67%
Normal behavior show % of the test fish ([1]; Table A, 35 mg/l single dose, 5 hrs): 67%
Normal behavior show % of the test fish ([1]; Table A, 35 mg/l single dose, 9 hrs): 67%
Normal behavior show % of the test fish ([1]; Table A, 35 mg/l single dose, 23 hrs): 56%
Normal behavior show % of the test fish ([1]; Table A, 35 mg/l single dose, 29 hrs): 67%
Normal behavior show % of the test fish ([1]; Table A, 35 mg/l single dose, 46 hrs): 67%
Normal behavior show % of the test fish ([1]; Table A, 35 mg/l single dose, 54 hrs): 56%
Normal behavior show % of the test fish ([1]; Table A, 35 mg/l single dose, 72 hrs): 44%
Normal behavior show % of the test fish ([1]; Table B, 130 mg/l single dose, 0 hrs (before dose), 1000 μmol/l total ammonia): 100%
Normal behavior show % of the test fish ([1]; Table B, 130 mg/l single dose, 2 hrs): 78%
Normal behavior show % of the test fish ([1]; Table B, 130 mg/l single dose, 4 hrs): 78%
Normal behavior show % of the test fish ([1]; Table B, 130 mg/l single dose, 8 hrs): 78%
Normal behavior show % of the test fish ([1]; Table B, 130 mg/l single dose, 24 hrs): 78%
Normal behavior show % of the test fish ([1]; Table B, 130 mg/l single dose, 48 hrs): 100%
Normal behavior show % of the test fish ([1]; Table C, three-time dose 35 mg/l every 72 hours, 0 hrs (before doses)): 100%
Normal behavior show % of the test fish ([1]; Table C, three-time dose 35 mg/l every 72 hours, 2 hrs): 78%
Normal behavior show % of the test fish ([1]; Table C, three-time dose 35 mg/l every 72 hours, 4 hrs): 78%
Normal behavior show % of the test fish ([1]; Table C, three-time dose 35 mg/l every 72 hours, 5 hrs): 78%
Normal behavior show % of the test fish ([1]; Table C, three-time dose 35 mg/l every 72 hours, 24 hrs): 67%
Normal behavior show % of the test fish ([1]; Table C, three-time dose 35 mg/l every 72 hours, 72 hrs (before 2nd dose)): 78%
Normal behavior show % of the test fish ([1]; Table C, three-time dose 35 mg/l every 72 hours, 74 hrs): 67%
Normal behavior show % of the test fish ([1]; Table C, three-time dose 35 mg/l every 72 hours, 96 hrs): 89%
Normal behavior show % of the test fish ([1]; Table C, three-time dose 35 mg/l every 72 hours, 5 days after the 3rd dose (i.e. 11 days)): 89%
Normal behavior show % of the test fish ([1]; Table C, three-time dose 35 mg/l every 72 hours, 120 hrs): 89%
Normal behavior show % of the test fish ([1]; Table C, three-time dose 35 mg/l every 72 hours, 144 hrs (before 3rd dose)): 89%
Normal behavior show % of the test fish ([1]; Table C, three-time dose 35 mg/l every 72 hours, 145 hrs): 100%
Normal behavior show % of the test fish ([1]; Table C, three-time dose 35 mg/l every 72 hours, 168 hrs): 89%
Normal behavior show % of the test fish ([1]; Table C, three-time dose 35 mg/l every 72 hours, 192 hrs): 100%
Normal behavior show % of the test fish ([1]; Table D comparison, glyoxal•2NaHSO3 35 mg/l, product doses not given, 0 hrs (before dose)): 89%
Normal behavior show % of the test fish ([1]; Table D comparison, glyoxal•2NaHSO3 35 mg/l, product doses not given, 2 hrs): 67%
Normal behavior show % of the test fish ([1]; Table D comparison, glyoxal•2NaHSO3 35 mg/l, product doses not given, 5 hrs): 67%
Normal behavior show % of the test fish ([1]; Table D comparison, glyoxal•2NaHSO3 35 mg/l, product doses not given, 8.5 hrs): 67%
Normal behavior show % of the test fish ([1]; Table D comparison, glyoxal•2NaHSO3 35 mg/l, product doses not given, 22.5 hrs): 56%
Normal behavior show % of the test fish ([1]; Table D comparison, glyoxal•2NaHSO3 35 mg/l, product doses not given, 29 hrs): 67%
Normal behavior show % of the test fish ([1]; Table D comparison, glyoxal•2NaHSO3 35 mg/l, product doses not given, 46 hrs): 67%
Normal behavior show % of the test fish ([1]; Table D comparison, glyoxal•2NaHSO3 35 mg/l, product doses not given, 54 hrs): 56%
Normal behavior show % of the test fish ([1]; Table D comparison, glyoxal•2NaHSO3 35 mg/l, product doses not given, 72 hrs): 44%
percentage of test fish with normal behavior versus control without treatment ([1]; during the first 48 hours, 35 mg/l and 130 mg/l): significantly higher percentage of the test fish shows normal behavior than in the control test
reduction of the acute toxicity of ammonia in water animals, in particular ornamental fish [1]: especially effective
acute toxicity of ammonia to fish ([1]; on addition of 5-140 mg/l, preferably 10-50 mg/l): clearly reduced
time over which the behavioral pattern observed persisted ([1]; single dose, 1000 μmol/l of total ammonia): 48 to 72 h
concentration up to which the adduct alone is very well compatible for fish and other water organisms [4]: ≤ 140 µg/mL

O=S(=O)([O-])C(O)CC(O)S(=O)(=O)[O-].[Na+].[Na+] (centres unmarked) [NaHSO3 bisadduct of malondialdehyde]
reduction of the acute toxicity of ammonia in water animals, in particular ornamental fish [1]: show the desired reduction of the acute toxicity of ammonia

O=S(=O)([O-])C(O)CCC(O)S(=O)(=O)[O-].[Na+].[Na+] (centres unmarked) [NaHSO3 bisadduct of succindialdehyde]
reduction of the acute toxicity of ammonia in water animals, in particular ornamental fish [1]: show the desired reduction of the acute toxicity of ammonia

O=S(=O)([O-])CO.[Na+] [sodium hydroxymethanesulfonate]
reduction in the ammonia concentration [5]: Neither a reduction in the ammonia concentration
reduction of the NH3 toxicity [5]: nor a, however disposed, reduction of the NH3 toxicity could be observed

O=S(=O)([O-])C(O)CO.[Na+] (centres unmarked) [NaHSO3 monoadduct of glycolaldehyde]
reduction of the acute toxicity of ammonia in water animals, in particular ornamental fish [1]: show the desired reduction of the acute toxicity of ammonia
